From PMC5218480 (PLoS ONE, 2017)

System: MV-4-11 cells
Assay: Gene expression microarray analysis (Affymetrix PrimeView) and GSEA
Assay type: cell-based, human
Parameters: RFU PODN (11730768_x_at) / Fold change /veh PODN (11730768_x_at) / RFU LINC00158 (11744669_a_at) / Fold change /veh LINC00158 (11744669_a_at) / RFU DUSP10 (11751237_a_at) / Fold change /veh DUSP10 (11751237_a_at) / RFU ID3 (11757404_x_at) / Fold change /veh ID3 (11757404_x_at) / RFU PLEKHG5 (11737974_s_at) / Fold change /veh PLEKHG5 (11737974_s_at) / RFU LRRC4B (11730491_at) / Fold change /veh LRRC4B (11730491_at) / RFU GIMAP4 (11747438_a_at) / Fold change /veh GIMAP4 (11747438_a_at) / RFU KRT8 (11758183_x_at) / Fold change /veh KRT8 (11758183_x_at) / RFU CNN1 (11734310_a_at) / Fold change /veh CNN1 (11734310_a_at) / RFU VPS37D (11726825_at) / Fold change /veh VPS37D (11726825_at) / RFU C10orf10 (11716522_x_at) / Fold change /veh C10orf10 (11716522_x_at) / RFU KIR2DL2 /// KIR2DL4 /// KIR2DL5A /// KIR2DL5B /// KIR2DS1 /// KIR2DS2 /// KIR2DS3 /// KIR2DS4 /// KIR3DL3 /// KIR3DL3 /// KIR3DS1 (11738374_at) / Fold change /veh KIR2DL2 /// KIR2DL4 /// KIR2DL5A /// KIR2DL5B /// KIR2DS1 /// KIR2DS2 /// KIR2DS3 /// KIR2DS4 /// KIR3DL3 /// KIR3DL3 /// KIR3DS1 (11738374_at) / RFU C1QL1 (11718748_at) / Fold change /veh C1QL1 (11718748_at) / RFU TMPRSS4 (11747572_a_at) / Fold change /veh TMPRSS4 (11747572_a_at) / RFU HAMP (11756126_x_at) / Fold change /veh HAMP (11756126_x_at) / RFU RNFT2 (11725882_a_at) / Fold change /veh RNFT2 (11725882_a_at) / RFU NR4A2 (11747474_a_at) / Fold change /veh NR4A2 (11747474_a_at) / RFU ABCC12 (11746883_a_at) / Fold change /veh ABCC12 (11746883_a_at) / RFU TMEM136 (11760407_x_at) / Fold change /veh TMEM136 (11760407_x_at) / RFU CLDN22 /// WWC2 (11732394_at) / Fold change /veh CLDN22 /// WWC2 (11732394_at) / RFU HLA-DPB1 (11760878_x_at) / Fold change /veh HLA-DPB1 (11760878_x_at) / RFU SPINT1 (11716480_a_at) / Fold change /veh SPINT1 (11716480_a_at) / RFU GAP43 (11754022_s_at) / Fold change /veh GAP43 (11754022_s_at) / RFU A4GNT (11735810_at) / Fold change /veh A4GNT (11735810_at) / RFU PRB3 (11715151_x_at) / Fold change /veh PRB3 (11715151_x_at) / RFU TUBB4B (11761932_at) / Fold change /veh TUBB4B (11761932_at) / RFU CAPN14 (11732068_a_at) / Fold change /veh CAPN14 (11732068_a_at) / RFU TMCC2 (11721928_a_at) / Fold change /veh TMCC2 (11721928_a_at) / RFU IRGQ (11745062_a_at) / Fold change /veh IRGQ (11745062_a_at) / RFU FAM174B (11720279_a_at) / Fold change /veh FAM174B (11720279_a_at) / RFU TMPRSS4 (11748680_a_at) / Fold change /veh TMPRSS4 (11748680_a_at) / RFU FAM212B (11763350_a_at) / Fold change /veh FAM212B (11763350_a_at) / RFU PLEKHG5 (11743358_a_at) / Fold change /veh PLEKHG5 (11743358_a_at) / RFU ZSCAN30 (11745921_a_at) / Fold change /veh ZSCAN30 (11745921_a_at) / RFU CMKLR1 (11741424_a_at) / Fold change /veh CMKLR1 (11741424_a_at) / RFU LOC101060620 /// MAPK8IP1 (11723275_at) / Fold change /veh LOC101060620 /// MAPK8IP1 (11723275_at) / RFU SPTSSB (11747773_x_at) / Fold change /veh SPTSSB (11747773_x_at) / RFU PRSS12 (11739890_at) / Fold change /veh PRSS12 (11739890_at) / RFU BIN1 (11741810_x_at) / Fold change /veh BIN1 (11741810_x_at) / RFU WNT11 (11732464_a_at) / Fold change /veh WNT11 (11732464_a_at) / RFU C10orf10 (11716521_a_at) / Fold change /veh C10orf10 (11716521_a_at) / RFU C5orf56 (11738089_at) / Fold change /veh C5orf56 (11738089_at) / RFU CYB561 (11721691_x_at) / Fold change /veh CYB561 (11721691_x_at) / RFU ANKRD19P (11752326_a_at) / Fold change /veh ANKRD19P (11752326_a_at) / RFU OR2T12 /// OR2T33 /// OR2T8 (11738714_s_at) / Fold change /veh OR2T12 /// OR2T33 /// OR2T8 (11738714_s_at) / RFU VCAN (11748164_a_at) / Fold change /veh VCAN (11748164_a_at) / RFU JSRP1 (11732532_at) / Fold change /veh JSRP1 (11732532_at) / RFU KRTAP10-11 (11738290_x_at) / Fold change /veh KRTAP10-11 (11738290_x_at) / RFU MYO3A (11730013_a_at) / Fold change /veh MYO3A (11730013_a_at) / RFU EBF3 (11725865_a_at) / Fold change /veh EBF3 (11725865_a_at) / RFU CAMK2N1 (11719241_x_at) / Fold change /veh CAMK2N1 (11719241_x_at) / RFU C5orf56 (11738088_a_at) / Fold change /veh C5orf56 (11738088_a_at) / RFU OLFML3 (11715873_a_at) / Fold change /veh OLFML3 (11715873_a_at) / RFU LOC100653217 /// NTM (11731650_a_at) / Fold change /veh LOC100653217 /// NTM (11731650_a_at) / RFU MAPK11 (11762145_a_at) / Fold change /veh MAPK11 (11762145_a_at) / RFU FIZ1 (11724087_x_at) / Fold change /veh FIZ1 (11724087_x_at) / RFU OASL (11726364_x_at) / Fold change /veh OASL (11726364_x_at) / RFU SOX15 (11748057_x_at) / Fold change /veh SOX15 (11748057_x_at) / RFU CD79A (11719716_a_at) / Fold change /veh CD79A (11719716_a_at) / RFU HIST1H1D (11736915_at) / Fold change /veh HIST1H1D (11736915_at) / RFU CASKIN2 (11723855_a_at) / Fold change /veh CASKIN2 (11723855_a_at) / RFU LOC730098 (11760151_x_at) / Fold change /veh LOC730098 (11760151_x_at) / RFU OR4N2 (11742367_at) / Fold change /veh OR4N2 (11742367_at) / RFU PRRT2 (11749266_a_at) / Fold change /veh PRRT2 (11749266_a_at) / RFU SNX32 (11753110_a_at) / Fold change /veh SNX32 (11753110_a_at) / RFU CDHR5 (11726645_a_at) / Fold change /veh CDHR5 (11726645_a_at) / RFU RCAN1 (11760418_a_at) / Fold change /veh RCAN1 (11760418_a_at) / RFU FAM167A (11723789_a_at) / Fold change /veh FAM167A (11723789_a_at) / RFU FAM26E (11764081_at) / Fold change /veh FAM26E (11764081_at) / RFU ISYNA1 (11749810_s_at) / Fold change /veh ISYNA1 (11749810_s_at) / RFU ACY1 (11761880_at) / Fold change /veh ACY1 (11761880_at) / RFU 11764098_at / Fold change /veh 11764098_at / RFU SAMD14 (11745864_x_at) / Fold change /veh SAMD14 (11745864_x_at) / RFU NPB (11741838_a_at) / Fold change /veh NPB (11741838_a_at) / RFU TMPRSS6 (11731388_a_at) / Fold change /veh TMPRSS6 (11731388_a_at) / RFU KRTAP10-2 (11738614_at) / Fold change /veh KRTAP10-2 (11738614_at) / RFU ARHGAP8 /// PRR5-ARHGAP8 (11727945_x_at) / Fold change /veh ARHGAP8 /// PRR5-ARHGAP8 (11727945_x_at) / RFU KRTAP5-7 /// NADSYN1 (11734609_at) / Fold change /veh KRTAP5-7 /// NADSYN1 (11734609_at) / RFU RASL12 (11751679_a_at) / Fold change /veh RASL12 (11751679_a_at) / RFU CDKN2B (11736163_a_at) / Fold change /veh CDKN2B (11736163_a_at) / RFU PRF1 (11729649_at) / Fold change /veh PRF1 (11729649_at) / RFU, ZNF638 /// ZNF638-IT1 / Fold change vs veh, ZNF638 /// ZNF638-IT1 / RFU, PANK3 / Fold change vs veh, PANK3 / RFU, SH3YL1 / Fold change vs veh, SH3YL1 / RFU, ZEB2 / Fold change vs veh, ZEB2 / RFU, NRIP1 / Fold change vs veh, NRIP1 / RFU, PTTG1IP / Fold change vs veh, PTTG1IP / RFU, CAPN2 / Fold change vs veh, CAPN2 / RFU, MED14 / Fold change vs veh, MED14 / RFU, SNORA58 / Fold change vs veh, SNORA58 / RFU, C1orf63 / Fold change vs veh, C1orf63 / RFU, LRRFIP1 / Fold change vs veh, LRRFIP1 / RFU, NDUFAF7 / Fold change vs veh, NDUFAF7 / RFU, SLC12A2 / Fold change vs veh, SLC12A2 / RFU, IBTK / Fold change vs veh, IBTK / RFU, ESF1 / Fold change vs veh, ESF1 / Fold change vs veh, TMEM50B / RFU, TAOK1 / Fold change vs veh, TAOK1 / RFU, ACBD3 / Fold change vs veh, ACBD3 / RFU, TMA16 / Fold change vs veh, TMA16 / RFU, RWDD3 / Fold change vs veh, RWDD3 / RFU, BCAT1 / Fold change vs veh, BCAT1 / RFU, EDEM3 / Fold change vs veh, EDEM3 / RFU, TMEM33 / Fold change vs veh, TMEM33 / RFU, WDR75 / Fold change vs veh, WDR75 / RFU, AHCTF1 / Fold change vs veh, AHCTF1 / RFU, TFRC / Fold change vs veh, TFRC / RFU, ZDHHC17 / Fold change vs veh, ZDHHC17 / RFU, NOM1 / Fold change vs veh, NOM1 / RFU, ARL8B / Fold change vs veh, ARL8B / RFU, ZBTB11 / Fold change vs veh, ZBTB11 / RFU, TAMM41 / Fold change vs veh, TAMM41 / RFU, KIAA1704 /// LOC100996395 / Fold change vs veh, KIAA1704 /// LOC100996395 / RFU, ING1 / Fold change vs veh, ING1 / RFU, TRMT61B / Fold change vs veh, TRMT61B / RFU, FUBP3 / Fold change vs veh, FUBP3 / RFU, TP53 / Fold change vs veh, TP53 / RFU, TNKS2 / Fold change vs veh, TNKS2 / RFU, ZFP14 / Fold change vs veh, ZFP14 / RFU, ACTR2 / Fold change vs veh, ACTR2 / RFU, PPP3R1 / Fold change vs veh, PPP3R1 / RFU, PIK3R1 / Fold change vs veh, PIK3R1 / RFU, HNRNPA1 / Fold change vs veh, HNRNPA1 / RFU, RNF170 / Fold change vs veh, RNF170 / RFU, ZNF28 / Fold change vs veh, ZNF28 / RFU, RNGTT / Fold change vs veh, RNGTT / RFU, OGT / Fold change vs veh, OGT / RFU, BRD1 / Fold change vs veh, BRD1 / RFU, MARS / Fold change vs veh, MARS / RFU, ZNF655 / Fold change vs veh, ZNF655 / RFU, FAHD1 / Fold change vs veh, FAHD1 / RFU, BDP1 / Fold change vs veh, BDP1 / RFU, LRRCC1 / Fold change vs veh, LRRCC1 / RFU, ARID1A / Fold change vs veh, ARID1A / RFU, ZNF146 / Fold change vs veh, ZNF146 / RFU, ZNF330 / Fold change vs veh, ZNF330 / RFU, GPN3 / Fold change vs veh, GPN3 / RFU, C9orf123 / Fold change vs veh, C9orf123 / RFU, N4BP2L2 / Fold change vs veh, N4BP2L2 / RFU, ARFIP1 / Fold change vs veh, ARFIP1 / RFU, FAM179B / Fold change vs veh, FAM179B / RFU, BCL10 / Fold change vs veh, BCL10 / RFU, UHRF1BP1L / Fold change vs veh, UHRF1BP1L / RFU, BET1 / Fold change vs veh, BET1 / RFU, CNOT2 / Fold change vs veh, CNOT2 / RFU, ZNF268 / Fold change vs veh, ZNF268 / Fold change vs veh, ZNF507 / RFU, DGCR2 / Fold change vs veh, DGCR2 / RFU, WDSUB1 / Fold change vs veh, WDSUB1 / Fold change vs veh, HSP90B1 /// MIR3652 / RFU, ADSS / Fold change vs veh, ADSS / RFU, GK / Fold change vs veh, GK / RFU, ZNF148 / Fold change vs veh, ZNF148 / RFU, TAF9 / Fold change vs veh, TAF9 / RFU, SLC1A5 / Fold change vs veh, SLC1A5 / RFU, SLMO2 / Fold change vs veh, SLMO2 / RFU, ABCC4 / Fold change vs veh, ABCC4 / RFU, LOC101060439 /// RAP1B / Fold change vs veh, LOC101060439 /// RAP1B / RFU, RFX7 / Fold change vs veh, RFX7 / RFU, GTPBP10 / Fold change vs veh, GTPBP10 / RFU, CNEP1R1 / Fold change vs veh, CNEP1R1 / RFU, BIVM-ERCC5 /// ERCC5 / Fold change vs veh, BIVM-ERCC5 /// ERCC5 / RFU, ILF3 / Fold change vs veh, ILF3 / RFU 11762660_at / Fold change /veh 11762660_at / RFU VCAN (11757783_s_at) / Fold change /veh VCAN (11757783_s_at) / RFU DDX43 (11728927_at) / Fold change /veh DDX43 (11728927_at) / RFU KRT8 (11758188_x_at) / Fold change /veh KRT8 (11758188_x_at) / RFU NKD1 (11759106_at) / Fold change /veh NKD1 (11759106_at) / RFU SRD5A1 (11742802_a_at) / Fold change /veh SRD5A1 (11742802_a_at) / RFU TPSAB1 /// TPSB2 (11721975_s_at) / Fold change /veh TPSAB1 /// TPSB2 (11721975_s_at) / RFU GSTM3 (11746129_a_at) / Fold change /veh GSTM3 (11746129_a_at) / RFU IL23R (11737362_x_at) / Fold change /veh IL23R (11737362_x_at) / RFU TMEM51 (11727254_a_at) / Fold change /veh TMEM51 (11727254_a_at) / RFU PIWIL2 (11732686_x_at) / Fold change /veh PIWIL2 (11732686_x_at) / RFU ORM1 (11744905_x_at) / Fold change /veh ORM1 (11744905_x_at) / RFU CCDC152 (11743942_at) / Fold change /veh CCDC152 (11743942_at) / RFU ECM1 (11717891_a_at) / Fold change /veh ECM1 (11717891_a_at) / RFU IL23R (11748794_a_at) / Fold change /veh IL23R (11748794_a_at) / RFU TNFAIP8L3 (11732012_x_at) / Fold change /veh TNFAIP8L3 (11732012_x_at) / RFU MBOAT4 (11741988_at) / Fold change /veh MBOAT4 (11741988_at) / RFU 11764193_at / Fold change /veh 11764193_at / RFU TMEM53 (11763286_at) / Fold change /veh TMEM53 (11763286_at) / RFU MAGEB2 (11727129_at) / Fold change /veh MAGEB2 (11727129_at) / RFU TMEM200A (11744735_a_at) / Fold change /veh TMEM200A (11744735_a_at) / RFU CCDC152 (11751479_a_at) / Fold change /veh CCDC152 (11751479_a_at) / RFU FAM211A (11726209_a_at) / Fold change /veh FAM211A (11726209_a_at) / RFU RGS16 (11746705_a_at) / Fold change /veh RGS16 (11746705_a_at) / RFU VCAN (11755009_s_at) / Fold change /veh VCAN (11755009_s_at) / RFU RHOB (11743442_s_at) / Fold change /veh RHOB (11743442_s_at) / RFU RGS16 (11720943_a_at) / Fold change /veh RGS16 (11720943_a_at) / RFU RGS16 (11720944_at) / Fold change /veh RGS16 (11720944_at) / RFU, VPS4B / Fold change vs veh, VPS4B / RFU, CREB1 / Fold change vs veh, CREB1 / RFU, DNAJC13 / Fold change vs veh, DNAJC13 / RFU, GNAQ / Fold change vs veh, GNAQ / RFU, CDK5R1 / Fold change vs veh, CDK5R1 / RFU, ZRANB3 / Fold change vs veh, ZRANB3 / RFU, CUL4A / Fold change vs veh, CUL4A / RFU, CCNY / Fold change vs veh, CCNY / RFU, UFL1 / Fold change vs veh, UFL1 / RFU, COG3 / Fold change vs veh, COG3 / RFU, DIAPH2 / Fold change vs veh, DIAPH2 / RFU, SKA2 / Fold change vs veh, SKA2 / RFU, AFF3 / Fold change vs veh, AFF3 / RFU, LMF1 / Fold change vs veh, LMF1 / RFU, IPO11 / Fold change vs veh, IPO11 / RFU, DFFB / Fold change vs veh, DFFB / RFU, FOXP1 / Fold change vs veh, FOXP1 / RFU, CARD8 / Fold change vs veh, CARD8 / RFU, STRN3 / Fold change vs veh, STRN3 / RFU, ADK / Fold change vs veh, ADK / RFU, RASSF2 / Fold change vs veh, RASSF2 / RFU, WIPF1 / Fold change vs veh, WIPF1 / RFU, LARP1B / Fold change vs veh, LARP1B / RFU, RASA1 / Fold change vs veh, RASA1 / RFU, RB1 / Fold change vs veh, RB1 / RFU, PPFIA1 / Fold change vs veh, PPFIA1 / RFU, MAT2A / Fold change vs veh, MAT2A / RFU, CCT5 / Fold change vs veh, CCT5 / RFU, WDR92 / Fold change vs veh, WDR92 / RFU, CUX1 / Fold change vs veh, CUX1 / RFU, TTC7A / Fold change vs veh, TTC7A / RFU, TMEM135 / Fold change vs veh, TMEM135 / RFU, DEPTOR / Fold change vs veh, DEPTOR / RFU, CPM / Fold change vs veh, CPM / RFU, DNAJB6 / Fold change vs veh, DNAJB6 / RFU, CACNA2D3 / Fold change vs veh, CACNA2D3 / RFU, DTX4 / Fold change vs veh, DTX4 / RFU, TFCP2 / Fold change vs veh, TFCP2 / RFU, GMCL1 /// GMCL1P1 / Fold change vs veh, GMCL1 /// GMCL1P1 / RFU, AEBP2 / Fold change vs veh, AEBP2 / RFU, SNHG1 /// SNORD22 /// SNORD25 /// SNORD26 /// SNORD27 /// SNORD28 /// SNORD29 /// SNORD31 / Fold change vs veh, SNHG1 /// SNORD22 /// SNORD25 /// SNORD26 /// SNORD27 /// SNORD28 /// SNORD29 /// SNORD31 / Fold change (Aza/veh), C12orf56 (ProbeSet 11735607_a_at) / Fold change (ACY-1035/veh), C12orf56 (ProbeSet 11735607_a_at) / Fold change (Aza/veh), FGFR1OP (ProbeSet 11751329_s_at) / Fold change (ACY-1035/veh), FGFR1OP (ProbeSet 11751329_s_at) / Fold change (Aza/veh), VPS36 (ProbeSet 11739960_a_at) / Fold change (ACY-1035/veh), VPS36 (ProbeSet 11739960_a_at) / RFU SYPL1 (11715823_x_at) / Fold change /veh SYPL1 (11715823_x_at) / RFU IGFBP7 (11715501_s_at) / Fold change /veh IGFBP7 (11715501_s_at) / RFU REEP3 (11722064_at) / Fold change /veh REEP3 (11722064_at) / RFU IGLL1 (11728026_x_at) / Fold change /veh IGLL1 (11728026_x_at): dose or concentration left out as unconfirmed
Details: ProbeSet 11730501_a_at; LIST D

## Nc1ccc(-c2cccs2)cc1NC(=O)c1ccc2c(c1)cc(C1CC1)n2CCN1CCOCC1 [ACY-1035]
  RFU, CACNA2D3: 202.11 RFU
